Experimental data published in patent publication US11125659B2, “Preservative solution for heme protein, and method for stabilizing heme protein” (EIKEN KAGAKU KABUSHIKI KAISHA, priority 2015, dated 2021).

Test system: hemoglobin
Test: Residual percentage of hemoglobin in buffer solution with additive after storage at 37° C., hemoglobin concentration by latex agglutination immunoassay (OC sensor DIANA)
Design: species or system human
Settings: for Residual percentage After 6 hours of storage / Residual percentage After 24 hours of storage: 37° C.; for effect of stabilizing hemoglobin (result in words): storage at 37° C., 6 and 24 hours, versus control sample; for residual percentages of hemoglobin after 6 hours of storage and after 24 hours of storage (result in words): stored at a high temperature of 37° C.
Description: A solution (pH7.0) containing 0.3 w/v % bovine serum albumin, NaOH, 0.05 mol/L phosphate buffer solution as a buffer solution, and pure water as the remainder was prepared. 1,2-EDS as an additive was added, to the solution in such an amount as to give each concentration (0.01 to 0.2 mol/L) listed in Table 1, thereby preparing a solution at each concentration. Hemolytic hemoglobin was added to 10 mL of the prepared solutions in such an amount as to give a 600 ng/mL sample.
Immediately after addition of hemoglobin, the hemoglobin concentration (concentration immediately after addition) of each sample was measured. Subsequently, each sample was stored at 37° C. With the time of adding hemoglobin designated as 0 hour of storage, hemoglobin concentration of each sample was measured after 6 hours of storage and after 24 hours of storage (concentration after 6 hours of storage and concentration after 24 hours of storage).
Hemoglobin concentration was measured using an OC sensor DIANA analyzer (Eiken Chemical Co., Ltd) and a dedicated reagent (OC-Hemodia Auto III: Eiken Chemical Co., Ltd) based on the measurement principle, a latex agglutination reaction; that is, a type of immunoassay method. Specifically, 35 μL of the sample was collected and used as a test solution, and then 60 μL of latex (latex solution sensitized with 20 vol % anti-human hemoglobin rabbit polyclonal antibody) and 300 μL of diluent (11.92 mg/mL HEPES) were added to the test solution, followed by measurement of absorbance at a wavelength of 660 nm. Based on a previously produced calibration curve, hemoglobin concentration in the test solution was determined from the thus obtained measurement value. Measurement was performed in triplicate for each sample, the mean value of the measurement results was employed as the hemoglobin concentration of each sample.
From the thus measured hemoglobin concentrations, the residual percentages of hemoglobin were found based on the following formula.
Residual percentage [%] of hemoglobin after 6 hours of storage or after 24 hours of storage=100×hemoglobin concentration [ng/mL] after 6 hours of storage or after 24 hours of storage/concentration [ng/mL] immediately after addition in control sample.
Specifically, the residual percentage of hemoglobin of each sample is a relative value with the hemoglobin concentration (immediately after addition) in a control sample designated as 100%. The control sample in this example was a phosphate buffer solution (containing no 1,2-EDS) containing bovine serum albumin and NaOH, and the concentration immediately after addition in the control sample was 583 ng/mL.
Samples were prepared in a manner similar to Example 1 except that 0.05 mol/L N-(2-hydroxyethyl)piperazine-N′-ethanesulfonic acid (hereinafter, referred to as HEPES) was used instead of a phosphate buffer solution and that 1,2-EDS was added in such an amount as to give each concentration (0.005 to 0.2 mol/L) listed in Table 2, and then hemoglobin concentrations were measured. In addition, the residual percentage of each sample was represented by a relative value with the concentration immediately after addition (576 ng/mL) in a control sample (HEPES buffer solution (containing no 1,2-EDS) containing bovine serum albumin and NaOH) designated as 100%.
Samples were prepared in a manner similar to Example 1 except that 0.05 mol/L HEPES, 0.05 mol/L piperazine-N,N′-bis(2-ethanesulfonic acid) (hereinafter, referred to as PIPES) or 0.05 mol/L 2-morpholinoethanesulfonic acid (hereinafter, referred to as MES) was used instead of a phosphate buffer solution, and that 1,2-EDS was added in such an amount as to give each concentration listed in Table 3, and then hemoglobin concentrations were measured. […]

[1] = HEPES buffer, additive 5 mM, relative to HEPES control (576 ng/mL)
[2] = HEPES buffer, additive 10 mM, relative to HEPES control (576 ng/mL)
[3] = HEPES buffer, additive 20 mM, relative to HEPES control (576 ng/mL)
[4] = HEPES buffer, additive 20 mM, relative to phosphate control (583 ng/mL)
[5] = HEPES buffer, additive 40 mM, relative to HEPES control (576 ng/mL)
[6] = HEPES buffer, additive 60 mM, relative to HEPES control (576 ng/mL)
[7] = HEPES buffer, additive 100 mM, relative to HEPES control (576 ng/mL)
[8] = HEPES buffer, additive 150 mM, relative to HEPES control (576 ng/mL)
[9] = HEPES buffer, additive 200 mM, relative to HEPES control (576 ng/mL)
[10] = MES buffer, additive 20 mM, relative to phosphate control (583 ng/mL)
[11] = PIPES buffer, additive 20 mM, relative to phosphate control (583 ng/mL)
[12] = phosphate buffer pH7.0, additive 10 mM, relative to control immediately after addition (583 ng/mL)
[13] = phosphate buffer, additive 20 mM, relative to control (583 ng/mL)
[14] = phosphate buffer, additive 40 mM, relative to control (583 ng/mL)
[15] = phosphate buffer, additive 60 mM, relative to control (583 ng/mL)
[16] = phosphate buffer, additive 100 mM, relative to control (583 ng/mL)
[17] = phosphate buffer, additive 150 mM, relative to control (583 ng/mL)
[18] = phosphate buffer, additive 200 mM, relative to control (583 ng/mL)
[19] = phosphate buffer, additive 50 mM, relative to phosphate control (548 ng/mL)
[20] = HEPES buffer, additive 150 mM, relative to phosphate control (548 ng/mL)
[21] = phosphate buffer, additive 150 mM, relative to phosphate control (548 ng/mL)

O=S(=O)(O)CCS(=O)(=O)O [1,2-EDS, 1,2-ethanedisulfonic acid]
Residual percentage After 6 hours of storage [1]: 64.3%
Residual percentage After 24 hours of storage [1]: 14.0%
Residual percentage After 6 hours of storage [2]: 65.2%
Residual percentage After 24 hours of storage [2]: 16.6%
Residual percentage After 6 hours of storage [3]: 67.1%
Residual percentage After 24 hours of storage [3]: 18.1%
Residual percentage After 6 hours of storage [4]: 67.6%
Residual percentage After 24 hours of storage [4]: 20.2%
Residual percentage After 6 hours of storage [5]: 68.5%
Residual percentage After 24 hours of storage [5]: 19.7%
Residual percentage After 6 hours of storage [6]: 71.3%
Residual percentage After 24 hours of storage [6]: 20.8%
Residual percentage After 6 hours of storage [7]: 72.4%
Residual percentage After 24 hours of storage [7]: 21.6%
Residual percentage After 6 hours of storage [8]: 72.8%
Residual percentage After 24 hours of storage [8]: 20.4%
Residual percentage After 6 hours of storage [9]: 73.1%
Residual percentage After 24 hours of storage [9]: 21.8%
Residual percentage After 6 hours of storage [10]: 65.9%
Residual percentage After 24 hours of storage [10]: 18.7%
Residual percentage After 6 hours of storage [11]: 63.6%
Residual percentage After 24 hours of storage [11]: 14.3%
Residual percentage After 6 hours of storage [12]: 52.5%
Residual percentage After 24 hours of storage [12]: 7.5%
Residual percentage After 6 hours of storage [13]: 56.3%
Residual percentage After 24 hours of storage [13]: 9.0%
Residual percentage After 6 hours of storage [14]: 61.9%
Residual percentage After 24 hours of storage [14]: 12.8%
Residual percentage After 6 hours of storage [15]: 59.7%
Residual percentage After 24 hours of storage [15]: 12.3%
Residual percentage After 6 hours of storage [16]: 65.4%
Residual percentage After 24 hours of storage [16]: 16.6%
Residual percentage After 6 hours of storage [17]: 71.5%
Residual percentage After 24 hours of storage [17]: 24.3%
Residual percentage After 6 hours of storage [18]: 46.2%
Residual percentage After 24 hours of storage [18]: 7.9%
effect of stabilizing hemoglobin (result in words): effect of stabilizing hemoglobin
residual percentages of hemoglobin after 6 hours of storage and after 24 hours of storage (result in words): high levels

O=S(=O)(O)c1ccc2cc(S(=O)(=O)O)ccc2c1 [2,6-NDS, 2,6-naphthalenedisulfonic acid]
Residual percentage After 6 hours of storage [19]: 55.7%
Residual percentage After 24 hours of storage [19]: 11.1%
effect of stabilizing hemoglobin (result in words): effect of stabilizing hemoglobin
residual percentages of hemoglobin after 6 hours of storage and after 24 hours of storage (result in words): high levels

O=S(=O)([O-])CCS.[Na+] [MESS, sodium 2-mercaptoethanesulfonate, reference compound]
Residual percentage After 6 hours of storage [12]: 33.4%
Residual percentage After 24 hours of storage [12]: 3.3%

O=S(=O)(O)CCCCS(=O)(=O)O [1,4-BDS, 1,4-butanedisulfonic acid]
Residual percentage After 6 hours of storage [20]: 74.7%
Residual percentage After 24 hours of storage [20]: 28.4%
Residual percentage After 6 hours of storage [19]: 68.3%
Residual percentage After 24 hours of storage [19]: 14.5%
Residual percentage After 6 hours of storage [21]: 69.9%
Residual percentage After 24 hours of storage [21]: 18.4%
effect of stabilizing hemoglobin (result in words): effect of stabilizing hemoglobin
residual percentages of hemoglobin after 6 hours of storage and after 24 hours of storage (result in words): high levels

O=S(=O)(O)c1cccc2cccc(Nc3ccccc3)c12 [ANS, 8-anilino-1-naphthalenesulfonate, reference compound]
Residual percentage After 6 hours of storage [12]: 2.6%
Residual percentage After 24 hours of storage [12]: 2.5%

O=S(=O)(O)CCN1CCN(CCS(=O)(=O)O)CC1 [PIPES, piperazine-N,N′-bis(2-ethanesulfonic acid)]
Residual percentage After 6 hours of storage [19]: 58.4%
Residual percentage After 24 hours of storage [19]: 10.4%
effect of stabilizing hemoglobin (result in words): effect of stabilizing hemoglobin
